Assay results reported in patent EP1976513B1 (priority 2006, dated 2007).
“And” between values parts separate entries of the source, which are not always exact repeats. Equal values may be shown once. Read-outs that look alike come from different tables or passages of the source.

Key:
[1] = molecular target: human serotonin reuptake transporter (Homo sapiens, UniProt P31645); experiment: cell-based
[2] = molecular target: T1, human dopamine reuptake transporter (Homo sapiens, UniProt Q01959); experiment: cell-based
T1 construct: expressed in transfected cells; host or cells: CHO-K1 or HEK293
T1 sequence (Q01959 whole entry): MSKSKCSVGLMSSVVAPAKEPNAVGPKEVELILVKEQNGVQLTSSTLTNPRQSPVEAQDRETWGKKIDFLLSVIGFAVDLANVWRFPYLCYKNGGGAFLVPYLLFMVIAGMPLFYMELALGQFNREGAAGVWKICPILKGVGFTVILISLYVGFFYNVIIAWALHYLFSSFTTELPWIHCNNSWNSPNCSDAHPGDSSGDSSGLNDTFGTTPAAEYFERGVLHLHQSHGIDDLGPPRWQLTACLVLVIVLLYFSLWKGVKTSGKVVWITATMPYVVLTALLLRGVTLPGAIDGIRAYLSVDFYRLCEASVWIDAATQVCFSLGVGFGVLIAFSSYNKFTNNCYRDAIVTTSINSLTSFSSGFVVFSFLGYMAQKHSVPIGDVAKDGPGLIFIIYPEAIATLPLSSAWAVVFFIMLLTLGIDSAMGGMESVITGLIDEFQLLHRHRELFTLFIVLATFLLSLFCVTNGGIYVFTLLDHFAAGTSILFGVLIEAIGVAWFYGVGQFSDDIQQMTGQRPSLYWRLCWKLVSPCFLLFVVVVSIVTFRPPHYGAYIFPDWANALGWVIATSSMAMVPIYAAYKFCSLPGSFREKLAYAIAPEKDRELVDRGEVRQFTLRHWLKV

[3] = recombinant human serotonin transporter (SERT), read-out: Human IC50 (nM) hSERT
[4] = recombinant human dopamine transporter (DAT), read-out: Human IC50 (nM) hDAT
[5] = read-out: Human IC50 (nM) hSERT
[6] = Human IC50 (nM) hSERT, recombinant human serotonin transporter (SERT)

human serotonin reuptake transporter, sequence (P31645 whole entry): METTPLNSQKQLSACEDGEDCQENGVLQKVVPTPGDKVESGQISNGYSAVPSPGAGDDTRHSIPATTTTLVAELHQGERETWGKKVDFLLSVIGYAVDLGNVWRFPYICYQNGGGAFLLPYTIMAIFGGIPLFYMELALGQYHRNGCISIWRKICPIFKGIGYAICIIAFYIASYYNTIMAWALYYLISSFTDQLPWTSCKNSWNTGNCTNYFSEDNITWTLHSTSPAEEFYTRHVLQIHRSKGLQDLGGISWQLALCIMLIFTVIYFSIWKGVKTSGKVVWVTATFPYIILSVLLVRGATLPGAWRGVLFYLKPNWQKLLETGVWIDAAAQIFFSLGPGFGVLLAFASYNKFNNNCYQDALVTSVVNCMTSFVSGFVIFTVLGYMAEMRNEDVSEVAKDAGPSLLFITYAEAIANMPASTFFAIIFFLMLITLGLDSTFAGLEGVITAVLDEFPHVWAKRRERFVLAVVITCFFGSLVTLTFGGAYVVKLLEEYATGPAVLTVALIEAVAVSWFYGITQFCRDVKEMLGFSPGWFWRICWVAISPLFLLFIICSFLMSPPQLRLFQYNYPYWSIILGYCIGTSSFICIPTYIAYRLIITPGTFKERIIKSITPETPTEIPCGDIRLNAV

Row | SMILES | IC50 [1, 3] | IC50 [2, 4] | further results
1 | CNCC1(c2ccc3c(c2)OCO3)CCC(C)(O)CC1 (centres unmarked) [Compound 239, 4-(benzo[d][1,3]dioxol-5-yl)-1-methyl-4-((methylamino)methyl)cyclohexanol] | 8660 nM | 9450 nM | –
2 | CN(C)CC1(c2ccc3c(c2)OCO3)CCC(C)(O)CC1 (centres unmarked) [Compound 240, 4-(benzo[d][1,3]dioxol-5-yl)-4-((dimethylamino)methyl)-1-methylcyclohexanol] | 1810 nM | 9030 nM | –
3 | CNCC1(c2ccc3c(c2)OCO3)CCC(C)(O)CC1 (centres unmarked) [Compound 241, 4-(benzo[d][1,3]dioxol-5-yl)-1-methyl-4-((methylamino)methyl)cyclohexanol] | > 10000 nM | > 10000 nM | –
4 | CN(C)CC1(c2ccc3c(c2)OCO3)CCC(C)(O)CC1 (centres unmarked) [Compound 242, 4-(benzo[d][1,3]dioxol-5-yl)-4-((dimethylamino)methyl)-1-methylcyclohexanol] | 7660 nM | > 10000 nM | –
5 | CNCC1(c2ccc3ccccc3c2)CCC(O)(CF)CC1 (centres unmarked) [Compound 243, 1-(fluoromethyl)-4-((methylamino)methyl)-4-(naphthalen-2-yl)cyclohexanol] | 26 nM | 851 nM | –
6 | CN(C)CC1(c2ccc3ccccc3c2)CCC(O)(CF)CC1 (centres unmarked) [Compound 244, 4-((dimethylamino)methyl)-1-(fluoromethyl)-4-(naphthalen-2-yl)cyclohexanol] | 14 nM | 334 nM | –
7 | CNCC1(c2ccc3ccccc3c2)CCC(O)(CF)CC1 (centres unmarked) [Compound 245, 1-(fluoromethyl)-4-((methylamino)methyl)-4-(naphthalen-2-yl)cyclohexanol] | 538 nM | 2270 nM | –
8 | CN(C)CC1(c2ccc3ccccc3c2)CCC(O)(CF)CC1 (centres unmarked) [Compound 246, 4-((dimethylamino)methyl)-1-(fluoromethyl)-4-(naphthalen-2-yl)cyclohexanol] | 43 nM | 282 nM | –
9 | CN(C)CC1(c2ccc(OC(F)(F)F)cc2)CCC(C)(O)CC1 (centres unmarked) [Compound 248, 4-((dimethylamino)methyl)-1-methyl-4-(4-(trifluoromethoxy)phenyl)cyclohexanol] | 159 nM | 7250 nM | –
10 | CNCC1(c2ccc3ccccc3c2)CCC(F)(F)CC1 [Compound 251, 1-(4,4-difluoro-1-(naphthalen-2-yl)cyclohexyl)-N-methylmethanamine] | 199 nM | 107 nM | –
11 | CN(C)CC1(c2ccc3ccccc3c2)CCC(F)(F)CC1 [Compound 252, 1-(4,4-difluoro-1-(naphthalen-2-yl)cyclohexyl)-N,N-dimethylmethanamine] | 11 nM and 12 nM | 6 nM and 5 nM | –
12 | COC1CCC(CN)(c2ccc(Cl)c(Cl)c2)CC1 (centres unmarked) [Compound 255, (1-(3,4-dichlorophenyl)-4-methoxycyclohexyl)methanamine] | 1420 nM | 170 nM | –
13 | COC1CCC(CN)(c2ccc(Cl)c(Cl)c2)CC1 (centres unmarked) [Compound 257, (1-(3,4-dichlorophenyl)-4-methoxycyclohexyl)methanamine] | 2080 nM | 2000 nM | –
14 | CNCC1(c2ccc(Cl)c(Cl)c2)CCC(OC)CC1 (centres unmarked) [Compound 259, 1-(1-(3,4-dichlorophenyl)-4-methoxycyclohexyl)-N-methylmethanamine] | 5890 nM | 665 nM | –
15 | CN(C)CC1(c2ccc(Cl)c(Cl)c2)CCC(F)CC1 (centres unmarked) [Compound 261, 1-(1-(3,4-dichlorophenyl)-4-fluorocyclohexyl)-N,N-dimethylmethanamine] | – | – | IC50 [1, 5]: 30 nM; IC50 ([2]; Human IC50 (nM) hDAT): 7 nM
16 | NCC1(c2ccc(Cl)c(Cl)c2)CCC(O)CC1 (centres unmarked) [Compound 262, 4-(aminomethyl)-4-(3,4-dichlorophenyl)cyclohexanol] | – | 4280 nM | IC50 [1, 5]: > 10000 nM
17 | CN(C)CC1(c2ccc(Cl)c(Cl)c2)CCC(O)CC1 (centres unmarked) [Compound 263, 4-(3,4-dichlorophenyl)-4-((dimethylamino)methyl)cyclohexanol] | 674 nM | 498 nM | –
18 | CNCC1(c2ccc(Cl)c(Cl)c2)CCC(F)CC1 (centres unmarked) [Compound 264, 1-(1-(3,4-dichlorophenyl)-4-fluorocyclohexyl)-N-methylmethanamine] | 1050 nM | 17 nM | –
19 | NCC1(c2ccc(Cl)c(Cl)c2)CCC(Oc2ccccc2)CC1 (centres unmarked) [Compound 265, (1-(3,4-dichlorophenyl)-4-phenoxycyclohexyl)methanamine] | 109 nM | 1450 nM | –

Row | SMILES | IC50 [1, 3] | IC50 [2, 4] | further results
20 | CN(C)CC1(c2ccc(Cl)c(Cl)c2)CCC(Oc2ccccc2)CC1 (centres unmarked) [Compound 266, 1-(1-(3,4-dichlorophenyl)-4-phenoxycyclohexyl)-N,N-dimethylmethanamine] | – | – | IC50 [1, 5]: 168 nM; IC50 ([2]; read-out: Human IC50 (nM) hDAT): 859 nM
21 | NCC1(c2ccc(Cl)c(Cl)c2)CCC(F)(F)CC1 [Compound 267, (1-(3,4-dichlorophenyl)-4,4-difluorocyclohexyl)methanamine] | 1290 nM | 147 nM | –
22 | CNCC1(c2ccc(Cl)c(Cl)c2)CCC2(CC1)OCCO2 [Compound 270, 1-(8-(3,4-dichlorophenyl)-1,4-dioxaspiro[4.5]decan-8-yl)-N-methylmethanamine] | 469 nM | 376 nM | –
23 | CN(C)CC1(c2ccc(Cl)c(Cl)c2)CCC2(CC1)OCCO2 [Compound 271, 1-(8-(3,4-dichlorophenyl)-1,4-dioxaspiro[4.5]decan-8-yl)-N,N-dimethylmethanamine] | – | 197 nM | IC50 [1, 5]: 79 nM
24 | CNCC1(c2ccc(Cl)c(Cl)c2)CCC(C)(O)CC1 (centres unmarked) [Compound 273, 4-(3,4-dichlorophenyl)-1-methyl-4-((methylamino)methyl)cyclohexanol] | 830 nM | 528 nM | –
25 | CN(C)CC1(c2ccc(Cl)c(Cl)c2)CCC(C)(O)CC1 (centres unmarked) [Compound 274, 4-(3,4-dichlorophenyl)-4-((dimethylamino)methyl)-1-methylcyclohexanol] | 809 nM | 251 nM | –
26 | CCC1(O)CCC(CN)(c2ccc(Cl)c(Cl)c2)CC1 (centres unmarked) [Compound 278, 4-(aminomethyl)-4-(3,4-dichlorophenyl)-1-ethylcyclohexanol] | 5140 nM | 3190 nM | –
27 | CCC1(O)CCC(CN(C)C)(c2ccc(Cl)c(Cl)c2)CC1 (centres unmarked) [Compound 280, 4-(3,4-dichlorophenyl)-4-((dimethylamino)methyl)-1-ethylcyclohexanol] | 7 nM | 242 nM | –
28 | CCC1(O)CCC(CN)(c2ccc(Cl)c(Cl)c2)CC1 (centres unmarked) [Compound 281, 4-(aminomethyl)-4-(3,4-dichlorophenyl)-1-ethylcyclohexanol] | 256 nM | 384 nM | –
29 | CCC1(O)CCC(CN(C)C)(c2ccc(Cl)c(Cl)c2)CC1 (centres unmarked) [Compound 283, 4-(3,4-dichlorophenyl)-4-((dimethylamino)methyl)-1-ethylcyclohexanol] | 20 nM | 37 nM | –
30 | CCCC1(O)CCC(CN)(c2ccc(Cl)c(Cl)c2)CC1 (centres unmarked) [Compound 284, 4-(aminomethyl)-4-(3,4-dichlorophenyl)-1-propylcyclohexanol] | 7900 nM | 2460 nM | –
31 | CCCC1(O)CCC(CNC)(c2ccc(Cl)c(Cl)c2)CC1 (centres unmarked) [Compound 285, 4-(3,4-dichlorophenyl)-4-((methylamino)methyl)-1-propylcyclohexanol] | 1140 nM | 1900 nM | –
32 | CCCC1(O)CCC(CN(C)C)(c2ccc(Cl)c(Cl)c2)CC1 (centres unmarked) [Compound 286, 4-(3,4-dichlorophenyl)-4-((dimethylamino)methyl)-1-propylcyclohexanol] | – | 198 nM | IC50 [1, 5]: 46 nM
33 | CNCC1(c2ccc(Cl)c(Cl)c2)CCC(=O)CC1 [Compound 289, 4-(3,4-Dichloro-phenyl)-4-methylaminomethyl-cyclohexanone] | 469 nM | 282 nM | –
34 | Clc1ccc(C2(C3CCCN3)CCCCC2)cc1Cl (centres unmarked) [Compound 296, 2-(1-(3,4-dichlorophenyl)cyclohexyl)pyrrolidine] | 73 nM | 27 nM | –
35 | c1ccc2cc(C3(C4CCCN4)CCCCC3)ccc2c1 (centres unmarked) [Compound 297, 2-(1-(naphthalen-2-yl)cyclohexyl)pyrrolidine] | 40 nM | 13 nM | –
36 | NCC1(c2ccc(Cl)c(Cl)c2)CCC(O)C1 (stereo not drawn) [cis 167, 3-(aminomethyl)-3-(3,4-dichlorophenyl)cyclopentanol] | – | 2220 nM | IC50 [1, 6]: > 10000 nM
37 | NCC1(c2ccc(Cl)c(Cl)c2)CCC(O)C1 (stereo not drawn) [trans 167, 3-(aminomethyl)-3-(3,4-dichlorophenyl)cyclopentanol] | – | 145 nM | IC50 [1, 6]: 4910 nM
